Experiments:
Format in all cases: cell-based, mouse
[1] = tested on: B220 (CD45R); experiment: B220 surface expression on BMDCs; conditions: BMDCs cultured from day 3 with indole (1 mM) or retinoic acid (1 μM)
Method: FIGS. 12A and 12B graphically illustrate that indole induces CCR9 and B220 on DCs. BMDCs were cultured in the presence of indole (1 mM), retinoic acid (1 μM), or DMF solvent control from day 3. On day 7, DCs were surface stained for expression of CCR9 and B220 and analyzed by flow cytometry. […] Mean of three independent experiments. * indicates p<0.05 for one-way ANOVA followed by Dunnett's post-test.
An indole-induced upregulation of the B220 (CD45R) antigen was also observed (FIGS. 12A and 12B), which is widely used to distinguish the plasmacytoid DC lineage and is believed to contribute to gut homing. However, more recently B220 has been reported to distinguish a DC subset more closely developmentally related to conventional rather than plasmacytoid DCs and a precursor to resident CD8+ and CD8− conventional DCs.

[2] = tested on: naïve CD4+CD25− T cells; experiment: DC-T cell co-culture, monoclonal (OT-II, OVA323-339) stimulation: Foxp3+ Treg induction
Method: FIG. 16 graphically illustrates that indole-conditioned DCs preferentially induce Foxp3+ Tregs (monoclonal stimulation). Naïve CD4+CD25− T cells from OT-II TCR transgenic mice were isolated and labeled with cell proliferation dye. Naïve T cells were then co-cultured with OVA323-339 peptide-loaded BMDCs for 72 hours in the presence of TGF-β as indicated. BMDCs were previously treated with indole, RA, or DMF from day 3. Following 3 days of co-culture, surface and intracellular staining was performed for flow cytometric analysis. The mean percentage of Foxp3-positive […] from four independent experiments is shown. * indicates p<0.05 for one-way ANOVA followed by Dunnett's post-test.
FIGS. 20A and 20B graphically illustrate that T cell skewing mediated by indole-conditioned DCs is AhR-independent. BMDCs were differentiated from WT or AhR-KO mice and conditioned with indole, RA, or DMF from day 3. DCs were then loaded with OVA323-339 and co-cultured with naïve CD4+CD25− T cells from OT-II transgenic mice for 72 hours. For Th1 cultures, T cells were restimulated with PMA and ionomycin in the presence of golgiplug for the last 5 hours of culture. Subsequently, all cultures were stained and analyzed by flow cytometry for Foxp3 to identify Tregs or (B) IFNγ to identify Th1 cells.
To investigate whether indole-conditioned DCs preferentially induce Tregs, a co-culture system using FACS-sorted wild-type naïve CD4+CD25− T cells was employed. These naïve T cells were activated by antibodies against CD3 and CD28 in the presence of indole-conditioned BMDCs and cultured for 72 hours. Under this platform for polyclonal stimulation, a 2-fold increase in Treg induction in indole-DC cultures compared to controls was observed (FIG. 15). Additionally, the inventors pursued the same question in a more physiologically relevant model; i.e., under monoclonal T cell stimulation. […]

[3] = tested on: aldehyde dehydrogenase (ALDH); experiment: Aldehyde dehydrogenase activity in BMDCs (Aldefluor); conditions: indole 1 mM from day 3, Aldefluor
Method: FIG. 13A: BMDCs were cultured from day 3 with indole (1 mM), retinoic acid (1 uM), or DMF control were assayed for aldehyde dehydrogenase (ALDH) activity using the Aldefluor commercial kit. The ALDH inhibitor, DEAB reagent, was included to control for background fluorescence. Aldefluor fluorescence as a measure of ALDH activity was analyzed by flow cytometry. Data is reported as percentage of Aldefluor positive DCs (left panel) and corresponding MFI values (right panel). Individual dots represent data from five independent experiments. FIG. 13B: Gene expression of aldh1a2 was assayed by real-time qPCR in day 7 BMDCs cultured with indole from day 3. Gene expression was normalized to 18 s ribosomal RNA. […]
One possible explanation for these observations is that indole promotes retinoic acid availability to the DCs, thus inducing gut homing markers indirectly by providing substrate for a previously identified mechanism. To investigate this possibility, aldehyde dehydrogenase (ALDH) activity was analyzed via flow cytometry using the fluorescent ALDH substrate, Aldefluor. […]
Activity of aldehyde dehydrogenase (ALDH) in individual BMDCs was measured using an Aldefluor staining kit (Stem Cell Technologies) according to the manufacturer's instructions with minor modifications. […] Subsequently, cells were stained with CD11c in cold Aldefluor assay buffer and then analyzed by flow cytometry.

Structure (SMILES): c1ccc2[nH]ccc2c1 [Indole, indole]
- B220 (CD45R) expression on BMDCs [1]: upregulation
- Treg induction above solvent controls ([2]; BMDCs conditioned with indole, exogenous TGF-β absent or 2 ng/ml): Significance was not reached
- Treg induction above solvent controls ([2]; OT-II T cells with OVA-loaded BMDCs conditioned with indole, TGF-β at 10 and 30 ng/ml): 3.5 fold
- AhR dependence of Treg skewing ([2]; indole-conditioned BMDCs from wild-type or AhR−/− mice): entirely independent of AhR
- ALDH activity in DCs [3]: does not affect ALDH activity

— patent US11612586B2, “Indole regulation of antigen presenting cells” (THE TEXAS A&M UNIVERSITY SYSTEM, priority 2016, dated 2023)
